Assay results as given in ChEMBL document CHEMBL5154744, “Stereo-Defined Acyclic Nucleoside Phosphonates are Selective and Potent Inhibitors of Parasite 6-Oxopurine Phosphoribosyltransferases” (J Med Chem, 2022).

Key:
HeLa = test: Cytotoxicity against human HeLa cells assessed as cell viability at 10 uM; type: toxicity, cell-based
[1] = Inhibition of His-tagged Trypanosoma brucei HGXPRT expressed in Escherichia coli BL21 (DE3) cells using PRib-PP as substrate by spectrophotometric assay
NHDF = test: Cytotoxicity against human NHDF cells assessed as cell viability at 10 uM; type: toxicity, cell-based
[2] = Inhibition of His-tagged Trypanosoma brucei HGPRT1 expressed in Escherichia coli BL21 (DE3) cells using PRib-PP as substrate by spectrophotometric assay
[3] = target: T1, Hypoxanthine-guanine phosphoribosyltransferase (Homo sapiens, UniProt P00492); test: Inhibition of human HGPRT using PRib-PP as substrate by spectrophotometric assay
T1 sequence (P00492 whole entry): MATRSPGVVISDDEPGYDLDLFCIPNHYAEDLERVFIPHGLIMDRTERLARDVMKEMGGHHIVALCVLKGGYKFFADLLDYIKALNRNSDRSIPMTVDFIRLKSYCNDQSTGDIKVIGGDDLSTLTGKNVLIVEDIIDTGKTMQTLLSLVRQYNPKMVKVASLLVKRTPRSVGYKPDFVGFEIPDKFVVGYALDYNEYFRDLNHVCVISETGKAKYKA

[4] = Inhibition of Plasmodium vivax HGPRT using PRib-PP as substrate by spectrophotometric assay
[5] = Inhibition of Plasmodium falciparum HGXPRT using PRib-PP as substrate by spectrophotometric assay

SMILES | Activity (HeLa) | Ki [1] | Activity (NHDF) | Ki [2] | Ki [3] | Ki [4] | Ki [5]
O=c1[nH]cnc2c1ncn2C[C@H](COCP(=O)([O-])[O-])OCCCP(=O)([O-])[O-].[Na+].[Na+].[Na+].[Na+] | Non-Toxic | 200 nM | Non-Toxic | 1500 nM | 300 nM | – | –
Nc1nc2c(ncn2C[C@@H](COCP(=O)([O-])[O-])OCCCP(=O)([O-])[O-])c(=O)[nH]1.[Na+].[Na+].[Na+].[Na+] | Non-Toxic | 250 nM | Non-Toxic | 10 nM | 500 nM | 400 nM | 200 nM
O=c1[nH]cnc2c1ncn2C[C@@H](COCP(=O)([O-])[O-])OCC(O)CO.[Na+].[Na+] (stereo not given in full) | Non-Toxic | 14000 nM | Non-Toxic | 1000 nM | – | 13000 nM | 2400 nM
O=c1[nH]cnc2c1ncn2C[C@H](COCP(=O)([O-])[O-])OCC(O)P(=O)([O-])[O-].[Na+].[Na+].[Na+].[Na+] (stereo not given in full) | Non-Toxic | 100 nM | Non-Toxic | 300 nM | 2000 nM | 700 nM | –
O=c1[nH]cnc2c1ncn2C[C@@H](COCP(=O)([O-])[O-])OCCCP(=O)([O-])[O-].[Na+].[Na+].[Na+].[Na+] | Non-Toxic | 450 nM | Non-Toxic | 400 nM | 22000 nM | – | 6000 nM
Nc1nc2c(ncn2C[C@H](COCP(=O)([O-])[O-])OCC(O)CO)c(=O)[nH]1.[Na+].[Na+] (stereo not given in full) | Non-Toxic | 2000 nM | Non-Toxic | 500 nM | 4000 nM | 5000 nM | 1000 nM
O=C(CCP(=O)(O)O)N1CC(OC[C@@H](O)P(=O)(O)O)[C@H](n2cnc3c(=O)[nH]cnc32)C1 (stereo not given in full) | – | – | – | – | – | 6 nM | 2 nM
Nc1nc2c(ncn2C[C@@H](COCP(=O)([O-])[O-])OCC(O)P(=O)([O-])[O-])c(=O)[nH]1.[Na+].[Na+].[Na+].[Na+] (stereo not given in full) | Non-Toxic | 20 nM | Non-Toxic | 5 nM | 100 nM | 10 nM | 30 nM
Nc1nc2c(ncn2C[C@@H](COCP(=O)([O-])[O-])OC[C@@H](O)P(=O)([O-])[O-])c(=O)[nH]1.[Na+].[Na+].[Na+].[Na+] | Non-Toxic | 20 nM | Non-Toxic | 2 nM | 70 nM | 20 nM | 30 nM
Nc1nc2c(ncn2C[C@H](COCP(=O)([O-])[O-])OCC(O)P(=O)([O-])[O-])c(=O)[nH]1.[Na+].[Na+].[Na+].[Na+] (stereo not given in full) | Non-Toxic | 40 nM | Non-Toxic | 40 nM | 400 nM | 300 nM | 100 nM
O=c1[nH]cnc2c1ncn2C[C@H](COCP(=O)([O-])[O-])OCC(O)CO.[Na+].[Na+] (stereo not given in full) | Non-Toxic | 9000 nM | Non-Toxic | 2400 nM | – | – | –
Nc1nc2c(ncn2C[C@@H](COCP(=O)([O-])[O-])OC[C@H](O)P(=O)([O-])[O-])c(=O)[nH]1.[Na+].[Na+].[Na+].[Na+] | Non-Toxic | 30 nM | Non-Toxic | 2 nM | 100 nM | 20 nM | 50 nM
Nc1nc2c(ncn2CC(COCP(=O)(O)O)COCP(=O)(O)O)c(=O)[nH]1 | – | – | – | – | – | 600 nM | 70 nM
O=C(CCP(=O)(O)O)N1CC(OCCP(=O)(O)O)[C@H](n2cnc3c(=O)[nH]cnc32)C1 (stereo not given in full) | – | – | – | – | 20 nM | 80 nM | 14 nM
Nc1nc2c(ncn2C[C@@H](COCP(=O)([O-])[O-])OCC(O)CO)c(=O)[nH]1.[Na+].[Na+] (stereo not given in full) | Non-Toxic | 2000 nM | Non-Toxic | 300 nM | 9000 nM | 2000 nM | 1000 nM
O=c1[nH]cnc2c1ncn2CCC/C=C/P(=O)(O)O | – | 12000 nM | – | 1000 nM | 6000 nM | – | 13000 nM
Nc1nc2c(ncn2CCOCC(O)P(=O)(O)O)c(=O)[nH]1 (stereo not given) | – | 600 nM | – | – | 200 nM | – | 300 nM
O=c1[nH]cnc2c1ncn2CCOCC(O)P(=O)(O)O (stereo not given) | – | 100 nM | – | 600 nM | 2000 nM | – | 700 nM
Nc1nc2c(ncn2C[C@@H](COCCOP(=O)(O)O)COCP(=O)(O)O)c(=O)[nH]1 | – | – | – | – | 6 nM | 200 nM | 70 nM
Nc1nc2c(ncn2C[C@H](COCP(=O)([O-])[O-])OCCCP(=O)([O-])[O-])c(=O)[nH]1.[Na+].[Na+].[Na+].[Na+] | Non-Toxic | 60 nM | Non-Toxic | 40 nM | 400 nM | 700 nM | 800 nM
O=c1[nH]cnc2c1ncn2CCCC(O)C(O)P(=O)(O)O (stereo not given) | – | 6000 nM | – | 7000 nM | 5000 nM | – | 3000 nM
O=c1[nH]cnc2c1ncn2C[C@@H](COCP(=O)([O-])[O-])OCC(O)P(=O)([O-])[O-].[Na+].[Na+].[Na+].[Na+] (stereo not given in full) | Non-Toxic | 30 nM | Non-Toxic | 30 nM | 4000 nM | 200 nM | 400 nM
